Results: publication PMC4415882 (Biochemistry, 2013)

Assays:
[1] = target: NPP (nucleotide pyrophosphatase/phosphodiesterase) (Xanthomonas citri, UniProt A0A0U5FM15, T90S); conditions: read-out: average; average over substrates pNPP, Me-pNPP, bis-pNPP, dT-5'-pNPP (subsaturating); 0.1 M Tris-HCl pH 8.0, 0.5 M NaCl, 100 µM ZnCl2, 25 °C; competitive
[2] = target: NPP (nucleotide pyrophosphatase/phosphodiesterase) (Xanthomonas citri, UniProt A0A0U5FM15, L123A); conditions: read-out: average; average over substrates pNPP, Me-pNPP, bis-pNPP, dT-5'-pNPP (subsaturating); 0.1 M Tris-HCl pH 8.0, 0.5 M NaCl, 100 µM ZnCl2, 25 °C; competitive

[O]=[V]([OH])([OH])[OH] [vanadate]
Ki [1]: 340 ± 140 µM | Ki [2]: 154 ± 8 µM
